Measured values: ChEMBL document CHEMBL1201862, “PubChem BioAssay data set” (2004)
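Briefly, cells in 96-well plates were exposed to five compound concentrations for 48 h, and endpoints were estimated by linear interpolation. At the GI50, growth is halved.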 The source made the active and inactive calls. Rule as the data show it: active = GI50 up to about 1.1 µM and inactive = higher.

What was measured:
Test in all cases: inhibition of tumour cell growth, NCI panel, 48 h
[1] = system: A549
[2] = system: HOP-92
[3] = system: SNB-75
[4] = system: HCT-116
[5] = system: Malme-3M
[6] = system: HT-29
[7] = system: ACHN
[8] = system: SF-295
[9] = system: NCI-H23
[10] = system: SR
[11] = system: MDA-N
[12] = system: RPMI-8226
[13] = system: EKVX
[14] = system: SW-620
[15] = system: OVCAR-5
[16] = system: MOLT-4
[17] = system: RXF 393
[18] = system: BT-549
[19] = system: MCF7
[20] = system: OVCAR-8

| SMILES | GI50 [1] | GI50 [2] | GI50 [3] | GI50 [4] | GI50 [5] | GI50 [6] | GI50 [7] | GI50 [8] | GI50 [9] | GI50 [10] | GI50 [11] | GI50 [12] | GI50 [13] | GI50 [14] | GI50 [15] | GI50 [16] | GI50 [17] | GI50 [18] | GI50 [19] | GI50 [20] |
| --- | --- | --- | --- | --- | --- | --- | --- | --- | --- | --- | --- | --- | --- | --- | --- | --- | --- | --- | --- | --- |
| C=CCOC(=O)N1c2ccc(O[Si](C)(C)C(C)(C)C)cc2[C@@]23O[C@@]24[C@@H]1C#C/C=C\C#C[C@]3(O)C(OC)(OC)C[C@@H]4C | 20 µM (inactive) | 18.2 µM (inactive) | 4.82 µM (inactive) | 8.38 µM (inactive) | > 100 µM (inactive) | 12.9 µM (inactive) | 10.6 µM (inactive) | > 34.1 µM (inactive) | 16.3 µM (inactive) | 33.9 µM (inactive) | > 57.5 µM (inactive) | 18.6 µM (inactive) | > 38.5 µM (inactive) | 14 µM (inactive) | > 100 µM (inactive) | 2.89 µM (inactive) | 29.5 µM (inactive) | > 100 µM (inactive) | 10.8 µM (inactive) | > 53.8 µM (inactive) |
| CSc1nnc(SCc2nn3c(=O)cc(C)nc3s2)s1 | > 100 µM (inactive) | > 100 µM (inactive) | > 100 µM (inactive) | > 100 µM (inactive) | > 100 µM (inactive) | > 100 µM (inactive) | > 100 µM (inactive) | > 100 µM (inactive) | > 100 µM (inactive) | > 100 µM (inactive) | > 100 µM (inactive) | > 100 µM (inactive) | > 100 µM (inactive) | > 100 µM (inactive) | > 100 µM (inactive) | > 100 µM (inactive) | 66.8 µM (inactive) | > 100 µM (inactive) | > 100 µM (inactive) | > 100 µM (inactive) |
| CCN(CC)CCNc1ccc([N+](=O)[O-])c2nc3ccc(OC)cc3c(N)c12 | 1.27 µM (inactive) | 1.34 µM (inactive) | 1.77 µM (inactive) | 0.151 µM (active) | 1.78 µM (inactive) | 0.394 µM (active) | 1.43 µM (inactive) | 1.37 µM (inactive) | 1.64 µM (inactive) | 0.262 µM (active) | 1.67 µM (inactive) | 0.243 µM (active) | 1.7 µM (inactive) | 0.191 µM (active) | 1.7 µM (inactive) | 0.301 µM (active) | 1.16 µM (inactive) | 1.4 µM (inactive) | 0.43 µM (active) | 1.47 µM (inactive) |
| O=C(Nc1ccc(Nc2ccc3c(c2)C(=O)c2ccccc2C3=O)c2c1C(=O)c1ccccc1C2=O)c1ccccc1 | > 72.6 µM (inactive) | > 59.7 µM (inactive) | 16.6 µM (inactive) | > 100 µM (inactive) | 14.1 µM (inactive) | 43.7 µM (inactive) | > 100 µM (inactive) | 31.4 µM (inactive) | 79.4 µM (inactive) | 0.989 µM (active) | 3.05 µM (inactive) | 38.7 µM (inactive) | > 100 µM (inactive) | 38.6 µM (inactive) | > 100 µM (inactive) | 11.3 µM (inactive) | 20.3 µM (inactive) | > 100 µM (inactive) | 31.3 µM (inactive) | > 86.5 µM (inactive) |
| COc1ccc(/C=C\c2cc(OC)c(OC)c(OC)c2)cc1OCC(=O)O | 24.8 µM (inactive) | 9.89 µM (inactive) | 5.15 µM (inactive) | 3.46 µM (inactive) | 4.78 µM (inactive) | > 100 µM (inactive) | 10.2 µM (inactive) | 12.7 µM (inactive) | 3.9 µM (inactive) | 3.89 µM (inactive) | 2.15 µM (inactive) | 4.84 µM (inactive) | > 96.8 µM (inactive) | 3.78 µM (inactive) | > 100 µM (inactive) | 6.41 µM (inactive) | 6.15 µM (inactive) | 13.5 µM (inactive) | 36.6 µM (inactive) | 5.64 µM (inactive) |
| CC1=NN(c2nc(N)nc(NS(=O)(=O)c3cc(C)c(Cl)cc3S)n2)C(C)(C)C1 | > 10 µM (inactive) | > 10 µM (inactive) | > 10 µM (inactive) | > 10 µM (inactive) | > 10 µM (inactive) | > 10 µM (inactive) | > 10 µM (inactive) | > 10 µM (inactive) | > 10 µM (inactive) | > 10 µM (inactive) | > 10 µM (inactive) | > 10 µM (inactive) | > 10 µM (inactive) | > 10 µM (inactive) | > 10 µM (inactive) | > 10 µM (inactive) | > 10 µM (inactive) | > 10 µM (inactive) | > 10 µM (inactive) | > 10 µM (inactive) |
| O=C1CCCC2(c3ccccc3)Nc3ccccc3N12 (stereo not given) | > 100 µM (inactive) | > 100 µM (inactive) | > 100 µM (inactive) | > 100 µM (inactive) | > 100 µM (inactive) | > 100 µM (inactive) | > 100 µM (inactive) | 97.1 µM (inactive) | > 100 µM (inactive) | 67.8 µM (inactive) | > 100 µM (inactive) | > 100 µM (inactive) | > 100 µM (inactive) | > 100 µM (inactive) | > 100 µM (inactive) | > 100 µM (inactive) | > 100 µM (inactive) | > 100 µM (inactive) | > 100 µM (inactive) | > 100 µM (inactive) |
| ClCc1nc2cc(Cl)ccc2o1 | 17 µM (inactive) | 1.91 µM (inactive) | 10.9 µM (inactive) | 6.97 µM (inactive) | 11.5 µM (inactive) | 2.54 µM (inactive) | 1.72 µM (inactive) | 20.3 µM (inactive) | 8.99 µM (inactive) | 1.7 µM (inactive) | 5.71 µM (inactive) | 1.42 µM (inactive) | 3.75 µM (inactive) | 3.49 µM (inactive) | 18.7 µM (inactive) | 2.19 µM (inactive) | 12.2 µM (inactive) | 14.3 µM (inactive) | 2.47 µM (inactive) | 4.91 µM (inactive) |
| COC1OC(C(=O)O)C2OC(C)(C)OC12 (stereo not given) | > 100 µM (inactive) | > 100 µM (inactive) | > 100 µM (inactive) | > 100 µM (inactive) | > 100 µM (inactive) | > 100 µM (inactive) | > 100 µM (inactive) | > 100 µM (inactive) | > 100 µM (inactive) | > 100 µM (inactive) | > 100 µM (inactive) | > 100 µM (inactive) | > 100 µM (inactive) | > 100 µM (inactive) | > 100 µM (inactive) | > 100 µM (inactive) | > 100 µM (inactive) | > 100 µM (inactive) | > 100 µM (inactive) | > 100 µM (inactive) |
| CN(C)CCNS(=O)(=O)N(C)C | > 100 µM (inactive) | > 100 µM (inactive) | > 100 µM (inactive) | > 100 µM (inactive) | > 100 µM (inactive) | > 100 µM (inactive) | > 100 µM (inactive) | > 100 µM (inactive) | > 100 µM (inactive) | > 100 µM (inactive) | > 100 µM (inactive) | > 100 µM (inactive) | > 100 µM (inactive) | > 100 µM (inactive) | > 100 µM (inactive) | > 100 µM (inactive) | > 100 µM (inactive) | > 100 µM (inactive) | > 100 µM (inactive) | > 100 µM (inactive) |
| COc1ccnc2c1C(=O)c1nc3ccccc3c3ccnc-2c13 | 0.142 µM (active) | 0.342 µM (active) | 0.04 µM (active) | 0.0902 µM (active) | 0.262 µM (active) | 0.0571 µM (active) | 0.0634 µM (active) | 0.169 µM (active) | 0.271 µM (active) | 0.0343 µM (active) | 0.25 µM (active) | 0.201 µM (active) | 0.284 µM (active) | 0.0809 µM (active) | 0.52 µM (active) | 1.42 µM (inactive) | 0.231 µM (active) | 0.397 µM (active) | 0.0807 µM (active) | 0.0512 µM (active) |
| O=C1C(NCCN2CCOCC2)=C(Cl)C(=O)c2ncccc21 | 1.55 µM (inactive) | 2.08 µM (inactive) | 1.12 µM (inactive) | 0.348 µM (active) | 0.564 µM (active) | 0.637 µM (active) | 1.1 µM (active) | 1.4 µM (inactive) | 0.556 µM (active) | 1.32 µM (inactive) | 0.178 µM (active) | 0.1 µM (active) | 1.48 µM (inactive) | 0.105 µM (active) | 1.7 µM (inactive) | 2.15 µM (inactive) | 0.327 µM (active) | 1.29 µM (inactive) | 0.326 µM (active) | 0.377 µM (active) |
| Cc1nn2c(=O)c([N+](=O)[O-])c(/C=C/c3ccco3)nc2s1 | 53.5 µM (inactive) | 36.2 µM (inactive) | 31.5 µM (inactive) | 36.3 µM (inactive) | 68.9 µM (inactive) | 56.1 µM (inactive) | 60.5 µM (inactive) | 91 µM (inactive) | 50.5 µM (inactive) | 28.2 µM (inactive) | 26.9 µM (inactive) | 36.7 µM (inactive) | 26.4 µM (inactive) | 48.2 µM (inactive) | 73.1 µM (inactive) | 31.7 µM (inactive) | 28.7 µM (inactive) | 28.7 µM (inactive) | 38.5 µM (inactive) | 32.7 µM (inactive) |
| Cc1cc(Cl)ccc1Nc1nc2c(s1)C(=O)c1ccccc1C2=O | 4.59 µM (inactive) | 13.9 µM (inactive) | 7.33 µM (inactive) | 2.12 µM (inactive) | 1.45 µM (inactive) | 18.3 µM (inactive) | 3.98 µM (inactive) | 9.12 µM (inactive) | 1.84 µM (inactive) | 2.8 µM (inactive) | 0.604 µM (active) | 2.92 µM (inactive) | 9.04 µM (inactive) | 1.94 µM (inactive) | 4.55 µM (inactive) | 1.86 µM (inactive) | 7.28 µM (inactive) | 1.53 µM (inactive) | 1.87 µM (inactive) | 2.88 µM (inactive) |
